Source: patent US20230096528A1, “Pharmaceutical Composition for Treatment or Prevention of Multiple Inflammatory disorders” (priority 2019, published 2023)

Tests used:
[1] = test system: leptin-deficient (ob/ob) mice; assay: Body weight and biomarker study in leptin-deficient (ob/ob) mice, 56 days (Example 10); format: in vivo; conditions: 50 mg/kg gavage BID
Procedure: Therefore, ob/ob mice are a predictive in vivo model for these indications. This example provides results of a study of DA plus another compound (CQL) on body weight in leptin-deficient (ob/ob) mice. Vehicle group (N=14) were treated with distilled water by gavage BID, and DA (N=14) at a dose of 50 mg/kg by gavage BID. The study period was for 56 days+2-3 days testing period afterward. Body weight change measured 3× per week, food intake was measure twice per week, metabolic biomarkers (blood glucose, blood insulin, blood HbA1c, HDL, LDL, triglyceride and bile acid) were measured at beginning and end of study. Cytokine analysis was measured at end on Day 56.

[2] = test system: microbial populations in a nonalcoholic steatohepatitis (NASH) mouse model; assay: Microbiome study in NASH mouse model on AMLN diet (Example 4); format: in vivo, C57BL/6 mice
Excerpt: There were changes in the microbiome in a mice model using a high-fat diet after 4 weeks of treatment with and without administering DA orally. The high fat diet itself induced extensive changes in the microbial populations in all groups. Importantly though, there was a pronounced difference between the DA treatment group and the control group at week 4.
Classifications of the different organisms that changed in the control and treatment groups at 4 weeks and observed extensive changes in the primary or dominant phylum groups of bacteria, as well as on a family and genus level were made. […] The diversity at 4 weeks dropped over the study course in both control and treatment group due to dietary impact.
The genetic potential of treatment-induced changes in relation to predicted physiological and metabolic pathways were aligned with observed benefits of treatment with DA with regards to attenuating inflammation and metabolic syndrome. The majority of the pathways being impacted were directly related to a decrease in inflammation and are known to be beneficial to cardiovascular health and other conditions related to the metabolic syndrome in humans. Observations included: • Increased metabolism of unsaturated fatty acids • Increased metabolism of arachidonic acid • Increased metabolism of cofactors and vitamins • Increased lysine degradation • Increased glycolysis and gluconeogenesis • Increased phosphatidylinositol signaling • Decreased arginine and ornithine metabolism Below Changes from Phylum à Family à Genus Level
The effect of a small molecule oral TAS2R agonist (DA) was investigated on microbial populations in a nonalcoholic steatohepatitis (NASH) mouse model. Two groups of 4-week-old male C57BL/6 mice (20/group) were fed Amylin Liver NASH (AMLN) diet and received daily doses of ARD-101 (30 mg/mL in water) or vehicle (water) via intragastric gavage. DNA was isolated from fecal samples collected at week 0 and 4, and microbial ecology was evaluated using bTEFAP (bacterial tag-encoded FLX amplicon pyrosequencing). Operational taxonomic units were classified using BLAST against a curated NCBI database. Diversity within specific ecosystems and microbial community structures was analyzed with Qiime 2. Differences were determined by repeated measures ANOVA and post hoc pairwise comparisons using Tukey's test. Taxonomic classification data were evaluated with a dual hierarchal dendrogram.

[3] = test system: mouse acute lung injury plus hyperthermia model; assay: Mouse acute lung injury plus hyperthermia model (Example 7); format: in vivo; conditions: LPS plus hyperthermia, CD-1 mice
Procedure: Lung lavage fluid was measured and cytokine analysis.

[4] = test system: murine air pouch model of inflammation; assay: Murine air pouch model of inflammation, LPS induction (Example 2); format: in vivo, C57BL/6 mice
Procedure: This example provides the results of investigating DA to modulate immune response in a murine air pouch model of inflammation. […] What was measured was infiltrating cell counts with air pouch exudates, IL-6 levels in air pouch exudates by an ELISA assay (R&D Systems Cat. No. M6000B), and multiple cytokine analysis (Mouse 32Plex Kit MilliporeSigma Cat. No. MCYTMAG70PMX32BK).
Duarte et al., Current Protocols in Pharmacology, 5.6.1-5.6.8 Mar. 2012, describes “The subcutaneous air pouch is an in vivo model that can be used to study acute and chronic inflammation, the resolution of the inflammatory response, and the oxidative stress response. Injection of irritants into an air pouch in rats or mice induces an inflammatory response that can be quantified by the volume of exudate produced, the infiltration of cells, and the release of inflammatory mediators. The model presented in this unit has been extensively used to identify potential anti-inflammatory drugs.” It can be used to study localized inflammation without systemic effects. But in this case the drug was administered orally, by gavage BID.
Test administration was 5 ml/kg body weight BID dosing with 8 hour intervals. The air pouch was created in each test BL6 mouse by sc injection of 1.5 ml/mouse of sterile air on day 0 and 1.5 ml/mouse of sterile air on day 3. Compounds (or control distilled water) were administered BID on day −2. LPS (0.75 mg/animal in 1 ml endotoxin free PBS) was administered at hour 0 or one hour after dosing with test compounds. Plasma samples were collected at termination and exudates of the air pouches for all groups. Cell count analysis and IL-6 assays were conducted at the animal facility and plasma and exudate samples were sent out for cytokine analysis.

[5] = day 56, no significant difference
[6] = AMLN diet mice, daily gavage, week 4, DA vs vehicle
[7] = treatment at 4 weeks versus baseline and control
[8] = 96.4 mg/kg BID gavage pre-treatment, LPS, vs vehicle
[9] = higher dose of DA, air pouch model, LPS

SMILES: CC(=O)[O-].CC[N+](CC)(CC(=O)Nc1c(C)cccc1C)Cc1ccccc1 [DA, denatonium acetate]
- Body weight ([1]; 56 days): no significant effect
- Daily food consumption ([1]; 56 days): no significant effect
- Serum HBA1c levels ([1]; 56 days): no significant effect
- Serum HDL levels ([1]; 56 days): no significant effects
- Serum glucose levels ([1]; 56 days): significantly decreased
- Serum insulin levels ([1]; 56 days): no significant effect
- Serum LDL levels ([1]; 56 days, vs vehicle): significantly lowered
- Serum bile acids levels ([1]; 56 days, vs vehicle): significantly increased
- Serum triglyceride levels ([1]; 56 days, vs vehicle): significantly lowered
- IL-1β level decreased by, compared to vehicle group [1, 5]: 19.1%
- IL-6 level decreased by, compared to vehicle group [1, 5]: 61.4%
- MCP-1 level decreased by, compared to vehicle group [1, 5]: 20.9%
- RANTES level decreased by, compared to vehicle group [1, 5]: 1.7%
- Microbiome pathways for biosynthesis of unsaturated fatty acids ([2]; 4-week DA treatment): significant enrichment
- Microbiome pathways for glycolysis and gluconeogenesis ([2]; 4-week DA treatment): significant enrichment
- Microbiome pathways for lysine degradation ([2]; 4-week DA treatment): significant enrichment
- Microbiome pathways for metabolism of arachidonic acid ([2]; 4-week DA treatment): significant enrichment
- Microbiome pathways for metabolism of cofactors and vitamins ([2]; 4-week DA treatment): significant enrichment
- Microbiome phosphatidylinositol signaling ([2]; 4-week DA treatment): significant enrichment
- Microbiome signaling for arginine and ornithine metabolism ([2]; 4-week DA treatment): significantly decreased
- SCFAs in feces ([2]; AMLN diet mice, DA treatment): mitigated the diet-induced decrease
- Proteobacteria (phylum) in fecal microbiome ([2]; AMLN diet mice, daily gavage (30 mg/mL in water), week 4, DA vs vehicle): significant increases
- Cyanobacteria (phylum) in fecal microbiome [2, 6]: significant increases
- Deferribacteres (phylum) in fecal microbiome [2, 6]: significant decreases
- Firmicutes (phylum) in fecal microbiome [2, 6]: significant decreases
- Spirochetes (phylum) in fecal microbiome [2, 6]: significant decreases
- Verrucomicrobia (phylum) in fecal microbiome [2, 6]: significant increases
- Diversity within ecosystems and microbial communities ([2]; DA versus vehicle group at week 4, p<0.05): significantly less diversity
- Barnesiella (genus) in microbiome [2, 7]: Significantly Decreased
- Brenneria (genus) in microbiome [2, 7]: Significantly Increased
- Candidatus soleaferrea (genus) in microbiome [2, 7]: Significantly Decreased
- Clostridium (genus) in microbiome [2, 7]: Significantly Decreased
- Dehalobacterium (genus) in microbiome [2, 7]: Significantly Decreased
- Dorea (genus) in microbiome [2, 7]: Significantly Decreased
- Erysipelatoclostridium (genus) in microbiome [2, 7]: Significantly Increased
- Escherichia (genus) in microbiome [2, 7]: Significantly Increased
- Flavonifractor (genus) in microbiome [2, 7]: Significantly Decreased
- Lachnoclostridium (genus) in microbiome [2, 7]: Significantly Decreased
- Oscillibacter (genus) in microbiome [2, 7]: Significantly Decreased
- Oscillospira (genus) in microbiome [2, 7]: Significantly Decreased
- Parabacteroides (genus) in microbiome [2, 7]: Significantly Increased
- Peptoclostridium (genus) in microbiome [2, 7]: Significantly Increased
- Shigella (genus) in microbiome [2, 7]: Significantly Increased
- Sutterella (genus) in microbiome [2, 7]: Significantly Increased
- Bacteroidetes (phylum) in microbiome ([2]; week 4, not marked as significant): decreased
- Protein concentration in lung lavage fluid ([3]; iv bolus 3 mg/kg QD): drastic but not significantly reduced
- Protein concentration in lung lavage fluid ([3]; oral 92.4 mg/kg BID): drastic but not significantly reduced
- IL-6 levels in air pouch exudates [4, 8]: significantly lower
- Infiltrating cell count in air pouch exudates [4, 8]: significantly lower
- IL-1b cytokine level [4, 9]: significant reduction
- IL-10 cytokine level [4, 9]: significant reduction
- IL-17 cytokine level [4, 9]: significant reduction
- TNF-1a cytokine level [4, 9]: significant reduction
- Infiltrating cell counts in air pouch exudates following LPS induction ([4]; pre-treatment by gavage BID, in a dose-dependent manner): decreased
